Data taken from the NIST ThermoML archive (doi:10.1016/j.jct.2013.01.032).

Columns and labels:
[1] = osmotic coefficient (dimensionless); mn = molality of the nth substance listed, in mol/kg; conditions: 323.15 K, Liquid, Knauer Osmometer
[2] = mn = molality of the nth substance listed, in mol/kg; conditions: 101 kPa, Liquid; for speed of sound: Sing-around technique in a fixed-path interferometer; for mass density: Vibrating tube method

CCCCn1cc[n+](C)c1.O=S(=O)([O-])C(F)(F)F [1-butyl-3-methylimidazolium trifluoromethanesulfonate] + CCCCCO
[1]
Conditions	osmotic coefficient
m1 = 0.0505	0.619
m1 = 0.0795	0.565
m1 = 0.1004	0.529
m1 = 0.2014	0.436
m1 = 0.3014	0.402
m1 = 0.406	0.365
m1 = 0.5071	0.344
m1 = 0.8272	0.299
m1 = 1.233	0.242
m1 = 1.649	0.224
m1 = 2.044	0.202
m1 = 2.446	0.183
m1 = 2.837	0.184
m1 = 3.34	0.184

[2]
Conditions	mass density, 293.15 K [kg/m3]	mass density, 308.15 K [kg/m3]	mass density, 323.15 K [kg/m3]	speed of sound, 293.15 K [m/s]	speed of sound, 308.15 K [m/s]	speed of sound, 323.15 K [m/s]
m1 = 0.048	818.89	807.86	796.5	1292.6	1242.7	1193.2
m1 = 0.103	823.68	812.65	801.3	1292.3	1242.7	1193.6
m1 = 0.203	832.08	821.04	809.68	1291.9	1242.7	1194.1
m1 = 0.246	835.58	824.54	813.18	1291.4	1242.6	1194.1
m1 = 0.746	872.74	861.58	850.17	1289	1242	1195.6
m1 = 1.014	890.36	879.13	867.69	1288.5	1242.2	1196.7
m1 = 1.517	919.71	908.4	896.89	1288.2	1243.4	1199.3
m1 = 1.778	933.35	921.98	910.45	1288.6	1244.5	1201
m1 = 2.024	945.34	933.93	922.38	1289.4	1245.7	1202.7
m1 = 2.477	965.54	954.08	942.49	1290.7	1248.1	1205.9
m1 = 2.963	984.77	973.25	961.63	1292.8	1250.8	1209.4

CCCCn1cc[n+](C)c1.O=S(=O)([O-])C(F)(F)F [1-butyl-3-methylimidazolium trifluoromethanesulfonate] + CCCCO
[1]
Conditions	osmotic coefficient
m1 = 0.0481	0.84
m1 = 0.1053	0.618
m1 = 0.2108	0.512
m1 = 0.3131	0.457
m1 = 0.4049	0.425
m1 = 0.4947	0.403
m1 = 0.8149	0.36
m1 = 1.216	0.323
m1 = 1.613	0.301
m1 = 2.036	0.28
m1 = 2.425	0.268
m1 = 2.82	0.27
m1 = 3.311	0.259

[2]
Conditions	mass density, 293.15 K [kg/m3]	mass density, 308.15 K [kg/m3]	mass density, 323.15 K [kg/m3]	speed of sound, 293.15 K [m/s]	speed of sound, 308.15 K [m/s]	speed of sound, 323.15 K [m/s]
m1 = 0.052	814.31	802.84	790.99	1257.8	1207.6	1158.1
m1 = 0.101	818.63	807.15	795.31	1258	1208	1158.8
m1 = 0.153	823.08	811.61	799.78	1257.7	1208.3	1159.4
m1 = 0.206	827.53	816.05	804.22	1257.9	1208.8	1160.1
m1 = 0.25	831.16	819.67	807.85	1258	1209.1	1160.6
m1 = 0.504	851.11	839.58	827.75	1258	1210.5	1163.2
m1 = 0.756	869.28	857.7	845.85	1259.2	1212.1	1165.7
m1 = 1.009	886.03	874.41	862.55	1260.2	1213.9	1168.4
m1 = 1.262	901.54	889.89	878.01	1261	1215.8	1171
m1 = 1.508	915.57	903.89	892	1262.4	1217.9	1173.7
m1 = 1.758	928.83	917.11	905.21	1263.9	1219.9	1176.4
m1 = 1.989	940.32	928.56	916.64	1265.8	1222	1179
m1 = 2.486	962.85	951.04	939.1	1269.5	1226.6	1184.5
m1 = 2.979	982.55	970.73	958.77	1273.1	1231.2	1189.8
